Key:
Format in all cases: in vivo
[1] = test system: Veronica persica; test: Test Example 5: herbicidal effect by foliage application, plastic box (symbol R); details: 320 g/ha, 3 weeks after application
How it was run: (§1)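 Herbicide, formulated as an emulsion and diluted in water, is sprayed onto the aerial parts of 14-day seedlings. These were grown at 25° C. to 30° C. in sterilized diluvial soil; effects are graded after 3 weeks.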

[2] = test system: Abutilon theophrasti; test: Test Example 4: herbicidal effect by soil treatment (symbol M); details: for Herbicidal effect grade, M: Abutilon theophrasti: application herbicide amount 320 g/ha
How it was run: (§2)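 Seeds were sown in sterilized diluvial soil, covered with about 1.5 cm of soil, and the soil surface was sprayed with a water-diluted emulsion of the compound at a predetermined rate. Plants grew in a greenhouse at 25° C. to 30° C.; effects were scored visually 3 weeks after application.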

[3] = test system: Amaranthus retroflexus; test: Test Example 5: herbicidal effect by foliage application, plastic box (symbol N); details: 320 g/ha, 3 weeks after application
How it was run: as §1

[4] = test system: Avena fatua; test: Test Example 4: herbicidal effect by soil treatment (symbol I); details: for Herbicidal effect grade, I: Avena fatua: application herbicide amount 320 g/ha
How it was run: as §2

[5] = test system: Echinochloa oryzacola Vasing.; test: Test Example 2: herbicidal activity, application during weed generation in submerged conditions (symbol A); details: Table 23; application herbicide amount 320 g/ha; grade 0-5 by criteria of Test Example 1
How it was run: (§3)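 Compound was applied as a water-diluted emulsion into the standing water of flooded pots (4 cm) once co-sown weeds reached one to two leaves. Greenhouse temperature was 25° C. to 30° C., soil was alluvial, and each species was rated visually after 3 weeks.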

[6] = test system: Digitaria ciliaris; test: Test Example 5: herbicidal effect by foliage application, plastic box (symbol F); details: 320 g/ha, 3 weeks after application
How it was run: as §1

[7] = test system: Alopecurus myosuroides; test: Test Example 5: herbicidal effect by foliage application, plastic box (symbol J); details: 320 g/ha, 3 weeks after application
How it was run: as §1

[8] = test system: transplanted rice plant; test: Test Example 1: effect on crop, application before weed generation in submerged conditions (symbol a); details: application herbicide amount 320 g/ha
How it was run: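 Rice at 2.5 leaf stage transplanted into submerged soil (4 cm depth) sown with three weed species; herbicide applied before weed emergence.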

[9] = test system: Alopecurus myosuroides; test: Test Example 4: herbicidal effect by soil treatment (symbol J); details: for Herbicidal effect grade, J: Alopecurus myosuroides: application herbicide amount 320 g/ha
How it was run: as §2

[10] = test system: corn; test: Test Example 5: effect on crop by foliage application, plastic box (symbol c); details: 320 g/ha, 3 weeks after application
How it was run: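 Foliage-application test plants come from spot sowing in sterilized diluvial soil under a soil layer of about 1.5 cm, grown at 25° C. to 30° C. in a greenhouse.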

[11] = test system: Echinochloa crus-galli var. crus-galli; test: Test Example 3: herbicidal effect by foliage application, Wagner pot (symbol H); details: application herbicide amount 320 g/ha; for H (Echinochloa crus-galli var. crus-galli) herbicidal effect grade: Table 24
How it was run: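 In a shallow-flooded alluvial soil system held at 25–30 °C, plants including rice grew for 14 days and were then sprayed over the foliage with emulsion diluted to a fixed herbicide amount. Visual rating followed at 3 weeks.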

[12] = test system: corn; test: Test Example 4: effect on crop by soil treatment (symbol c); details: for Effect on crop grade, c: corn: application herbicide amount 320 g/ha
How it was run: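 Plants are raised in a greenhouse (25° C. to 30° C.) from spot-sown seed, which sits under about 1.5 cm of sterilized diluvial soil in a box shared with weed species.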

[13] = test system: Scirpus juncoides; test: Test Example 2: herbicidal activity, application during weed generation in submerged conditions (symbol B); details: Table 23; application herbicide amount 320 g/ha; grade 0-5 by criteria of Test Example 1
How it was run: as §3

[14] = test system: Apera spica-venti; test: Test Example 4: herbicidal effect by soil treatment (symbol L); details: for Herbicidal effect grade, L: Apera spica-venti: application herbicide amount 320 g/ha
How it was run: as §2

Row | Compound | R: Veronica persica, herbicidal effect grade [1] | Herbicidal effect grade, M: Abutilon theophrasti [2] | N: Amaranthus retroflexus, herbicidal effect grade [3] | Herbicidal effect grade, I: Avena fatua [4] | Herbicidal effect grade, A: Echinochloa oryzacola Vasing. [5] | F: Digitaria ciliaris, herbicidal effect grade [6] | J: Alopecurus myosuroides, herbicidal effect grade [7] | a (transplanted rice plant) effect on crop grade [8] | Herbicidal effect grade, J: Alopecurus myosuroides [9] | c: corn, effect on crop grade [10] | H (Echinochloa crus-galli var. crus-galli) herbicidal effect grade [11] | Effect on crop grade, c: corn [12] | Herbicidal effect grade, B: Scirpus juncoides [13] | Herbicidal effect grade, L: Apera spica-venti [14] | also measured
1 | CC(CC1CC(OC(=O)COc2ccccc2)=C(c2c(C)cc(-n3cc(Cl)cn3)cc2C)C1=O)=NOCC(F)(F)F (stereo not drawn) [9-012] | 3 (Herbicidal ratio of 40% or higher and lower than 70%) | 0 (Herbicidal ratio of 5% or lower (almost no effect)) | 4 (Herbicidal ratio of 70% or higher and lower than 90%) | 0 (Herbicidal ratio of 5% or lower (almost no effect)) | 5 (Herbicidal ratio of 90% or more (almost completely withered)) | 5 (Herbicidal ratio of 90% or more (almost completely withered)) | 5 (Herbicidal ratio of 90% or more (almost completely withered)) | 5 (Herbicidal ratio of 90% or more (almost completely withered)) | 5 (Herbicidal ratio of 90% or more (almost completely withered)) | 5 (Herbicidal ratio of 90% or more (almost completely withered)) | 5 (Herbicidal ratio of 90% or more (almost completely withered)) | 2 (Herbicidal ratio of 20% or higher and lower than 40%) | 4 (Herbicidal ratio of 70% or higher and lower than 90%) | 5 (Herbicidal ratio of 90% or more (almost completely withered)) | –
2 | CC(CC1CC(O)=C(c2c(C)cc(C)cc2C)C1=O)=NOCC#N (stereo not drawn) [1-102] | – | – | – | – | 5 (Herbicidal ratio of 90% or more (almost completely withered)) | – | – | – | – | – | – | – | 2 (Herbicidal ratio of 20% or higher and lower than 40%) | – | R: Veronica persica, herbicidal effect (criteria 0-5) [1]: 2 (Herbicidal ratio of 20% or higher and lower than 40%); M: Abutilon theophrasti, herbicidal effect grade ([2]; 320 g/ha): 0 (Herbicidal ratio of 5% or lower (almost no effect)); N: Amaranthus retroflexus, herbicidal effect (criteria 0-5) [3]: 0 (Herbicidal ratio of 5% or lower (almost no effect)); I: Avena fatua, herbicidal effect grade ([4]; 320 g/ha): 0 (Herbicidal ratio of 5% or lower (almost no effect)); F: Digitaria ciliaris, herbicidal effect (criteria 0-5) [6]: 5 (Herbicidal ratio of 90% or more (almost completely withered)); J: Alopecurus myosuroides, herbicidal effect (criteria 0-5) [7]: 5 (Herbicidal ratio of 90% or more (almost completely withered)); Effect grade on crop, a: transplanted rice plant [8]: 5 (Herbicidal ratio of 90% or more (almost completely withered)); J: Alopecurus myosuroides, herbicidal effect grade ([9]; 320 g/ha): 5 (Herbicidal ratio of 90% or more (almost completely withered)); c: corn, effect on crop (criteria 0-5) [10]: 5 (Herbicidal ratio of 90% or more (almost completely withered)); herbicidal effect on H (Echinochloa crus-galli var. crus-galli), grade 0-5 [11]: 5 (Herbicidal ratio of 90% or more (almost completely withered)); c: corn, effect grade on crop ([12]; 320 g/ha): 0 (Herbicidal ratio of 5% or lower (almost no effect)); L: Apera spica-venti, herbicidal effect grade ([14]; 320 g/ha): 5 (Herbicidal ratio of 90% or more (almost completely withered))
3 | CC(CC1CC(O)=C(c2c(C)cc(-c3ccc(Cl)cc3)cc2C)C1=O)=NOCC(F)(F)F (stereo not drawn) [9-024] | 4 (Herbicidal ratio of 70% or higher and lower than 90%) | 0 (Herbicidal ratio of 5% or lower (almost no effect)) | 1 (Herbicidal ratio of 5% or higher and lower than 20%) | 3 (Herbicidal ratio of 40% or higher and lower than 70%) | 3 (Herbicidal ratio of 40% or higher and lower than 70%) | 5 (Herbicidal ratio of 90% or more (almost completely withered)) | 5 (Herbicidal ratio of 90% or more (almost completely withered)) | 5 (Herbicidal ratio of 90% or more (almost completely withered)) | 5 (Herbicidal ratio of 90% or more (almost completely withered)) | 5 (Herbicidal ratio of 90% or more (almost completely withered)) | 5 (Herbicidal ratio of 90% or more (almost completely withered)) | 0 (Herbicidal ratio of 5% or lower (almost no effect)) | 3 (Herbicidal ratio of 40% or higher and lower than 70%) | 5 (Herbicidal ratio of 90% or more (almost completely withered)) | –

Source: patent US11000033B2, “Ketone or oxime compound, and herbicide” (NISSAN CHEMICAL CORPORATION, priority 2014, dated 2021)
